# Key:
# [1] = molecular target: Tubulin alpha chain (Sus scrofa) (UniProt P02550); test: Percentage inhibition against human tubulin polymerization; format: functional; settings: concentration not given here
# [2] = tested on: Mycobacterium tuberculosis; test: Compound was tested for inhibition of GTP hydrolysis at a concentration of 100 uM in Mycobacterium tuberculosis (Mtb); format: functional
# [3] = tested on: Mycobacterium tuberculosis; test: In vitro minimum inhibitory concentration (MIC) towardsMtb H37Ra was determined using a colorimetric (Alamar blue) microdilution broth assay; format: functional
# [4] = tested on: Mycobacterium tuberculosis; test: Inhibitory dose required against Mycobacterium tuberculosis FtsZ polymerization; format: functional; settings: read-out: ID50 (the source's name)
# [5] = tested on: Tubulin alpha chain (Homo sapiens); test: Percentage inhibition against human tubulin polymerization
# Chain of Tubulin alpha chain (Sus scrofa) (P02550 whole entry, looked up): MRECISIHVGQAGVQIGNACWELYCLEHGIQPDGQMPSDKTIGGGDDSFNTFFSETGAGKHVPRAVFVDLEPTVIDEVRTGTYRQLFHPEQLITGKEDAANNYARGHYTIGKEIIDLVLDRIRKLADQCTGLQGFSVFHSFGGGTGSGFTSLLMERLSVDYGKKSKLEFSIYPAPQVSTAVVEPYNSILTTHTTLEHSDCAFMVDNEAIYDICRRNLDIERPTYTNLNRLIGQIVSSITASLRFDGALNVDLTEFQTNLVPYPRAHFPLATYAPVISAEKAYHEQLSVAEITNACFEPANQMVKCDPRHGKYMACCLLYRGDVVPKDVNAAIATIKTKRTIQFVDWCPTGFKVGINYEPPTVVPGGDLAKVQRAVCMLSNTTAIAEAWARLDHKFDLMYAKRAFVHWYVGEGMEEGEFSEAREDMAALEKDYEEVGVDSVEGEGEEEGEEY
Structure (SMILES),inhibition [1],Hydrolysis [2],MIC [3],IC50 [4],inhibition [5]
CCOC(=O)Nc1nc(NC(C)CCCN(CC)CC)c2nc(-c3ccccc3)c(-c3ccccc3)nc2n1 (stereo not drawn),24%,23%,2 µg/mL,38.1 µM,–
CCOC(=O)Nc1cc(NC(C)CCCN(CC)CC)c2nc(-c3ccccc3)c(-c3ccccc3)nc2n1 (stereo not drawn),–,35%,> 0.25 µg/mL,34.2 µM,No inhibition

# From ChEMBL document CHEMBL1146640, “A new 2-carbamoyl pteridine that inhibits mycobacterial FtsZ” (2004)
